Reference: ChEMBL document CHEMBL1201862, “PubChem BioAssay data set” (2004)
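Briefly, cells in 96-well plates were exposed to five compound concentrations for 48 h, and endpoints were estimated by linear interpolation. GI50: concentration for 50% inhibition of growth.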 The source made the active and inactive calls. Rule as the data show it: active = GI50 up to about 1.1 µM and inactive = higher. Where a SMILES comes first, the peptide text is derived from it. Bridges are numbered along the chain shown (N, C = ends). [ ]: non-standard residue; d: D form. The star is where a group is joined. ξ: configuration not given here. X28 = O=C(/C=C/C=C/C=C/C=C/C=C/C(=O)*)NC1=C(O)CCC1=O; NMeA = CN[C@@H](C)C(=O)O; ξF = NC(Cc1ccccc1)C(=O)O; ξA = CC(N)C(=O)O

Experiments:
Assay in all cases: NCI-60 cell line screen, 48 h
K562 = test system: K562
HCT-15 = test system: HCT-15
SF-295 = test system: SF-295
COLO 205 = test system: COLO 205
NCI-H460 = test system: NCI-H460
SK-OV-3 = test system: SK-OV-3
SR = test system: SR
NCI-H23 = test system: NCI-H23
SF-268 = test system: SF-268
Malme-3M = test system: Malme-3M
HL-60 = test system: HL-60
RXF 393 = test system: RXF 393
RPMI-8226 = test system: RPMI-8226
T47D = test system: T47D
MDA-N = test system: MDA-N
HOP-62 = test system: HOP-62
EKVX = test system: EKVX
DU-145 = test system: DU-145
SNB-19 = test system: SNB-19
MDA-MB-435 = test system: MDA-MB-435

Structure (SMILES)	GI50 (K562)	GI50 (HCT-15) [µM]	GI50 (SF-295)	GI50 (COLO 205)	GI50 (NCI-H460)	GI50 (SK-OV-3)	GI50 (SR)	GI50 (NCI-H23)	GI50 (SF-268)	GI50 (Malme-3M)	GI50 (HL-60)	GI50 (RXF 393)	GI50 (RPMI-8226)	GI50 (T47D)	GI50 (MDA-N)	GI50 (HOP-62)	GI50 (EKVX)	GI50 (DU-145)	GI50 (SNB-19)	GI50 (MDA-MB-435)
O=C1NCC2(CCN(Cc3ccccc3)CC2)N1	> 100 µM (inactive)	> 100	> 100 µM (inactive)	> 100 µM (inactive)	> 100 µM (inactive)	> 100 µM (inactive)	> 100 µM (inactive)	> 100 µM (inactive)	> 100 µM (inactive)	> 100 µM (inactive)	> 100 µM (inactive)	> 100 µM (inactive)	> 100 µM (inactive)	> 100 µM (inactive)	> 100 µM (inactive)	> 100 µM (inactive)	> 100 µM (inactive)	> 100 µM (inactive)	> 100 µM (inactive)	> 100 µM (inactive)
Cc1nc2c(nc1C)-c1[nH]c3c(c1C(=O)C2=O)CCCC3=O	2.03 µM (inactive)	2.81	1.79 µM (inactive)	2.88 µM (inactive)	3.94 µM (inactive)	2.4 µM (inactive)	2.08 µM (inactive)	1.93 µM (inactive)	1.47 µM (inactive)	1.29 µM (inactive)	2.42 µM (inactive)	0.516 µM (active)	1.25 µM (inactive)	0.592 µM (active)	0.685 µM (active)	2.32 µM (inactive)	1.48 µM (inactive)	4.49 µM (inactive)	2.33 µM (inactive)	0.483 µM (active)
N#Cc1ccc(NC(=O)C(CC(=O)OCc2ccccc2)NC(=O)OCc2ccccc2)cc1 (stereo not given)	> 10 µM (inactive)	> 10	> 10 µM (inactive)	> 10 µM (inactive)	> 10 µM (inactive)	> 10 µM (inactive)	> 10 µM (inactive)	> 10 µM (inactive)	> 10 µM (inactive)	5.74 µM (inactive)	> 10 µM (inactive)	> 10 µM (inactive)	> 10 µM (inactive)	> 10 µM (inactive)	> 10 µM (inactive)	> 10 µM (inactive)	> 10 µM (inactive)	3.72 µM (inactive)	> 10 µM (inactive)	> 10 µM (inactive)
C=CCN1C(=O)/C(=C/c2ccco2)N=C1SC/C=C/C	32.4 µM (inactive)	35.7	40.4 µM (inactive)	36 µM (inactive)	57.9 µM (inactive)	> 100 µM (inactive)	21.6 µM (inactive)	50.9 µM (inactive)	49.2 µM (inactive)	44.4 µM (inactive)	28.2 µM (inactive)	29.2 µM (inactive)	28 µM (inactive)	43.6 µM (inactive)	21.7 µM (inactive)	> 100 µM (inactive)	37.7 µM (inactive)	> 100 µM (inactive)	71.3 µM (inactive)	31.8 µM (inactive)
COc1cc(/C=C/C=C2\CC/C(=C\C=C\c3ccc(O)c(OC)c3)C2=O)ccc1O	15.2 µM (inactive)	> 100	> 100 µM (inactive)	> 100 µM (inactive)	> 100 µM (inactive)	> 22.2 µM (inactive)	2.53 µM (inactive)	> 73.1 µM (inactive)	> 100 µM (inactive)	> 85.7 µM (inactive)	7.41 µM (inactive)	3.87 µM (inactive)	57.3 µM (inactive)	> 100 µM (inactive)	> 100 µM (inactive)	> 100 µM (inactive)	> 97.3 µM (inactive)	> 100 µM (inactive)	> 100 µM (inactive)	> 52.4 µM (inactive)
COC(=O)CNC(=O)CCC(C)[C@H]1CCC2C3C(C[C@H](OC(C)=O)[C@@]21C)[C@@]1(C)CCC2(C[C@H]1C[C@H]3OC(C)=O)OOC1(CC[C@]3(C)C4C[C@H](OC(C)=O)[C@@]5(C)C(CC[C@@H]5C(C)CCC(=O)NCC(=O)OC)C4[C@H](OC(C)=O)C[C@@H]3C1)OO2 (stereo not given in full)	1.38 µM (inactive)	1.33	5.65 µM (inactive)	0.875 µM (active)	2.07 µM (inactive)	5.37 µM (inactive)	0.381 µM (active)	1.03 µM (active)	2.19 µM (inactive)	0.782 µM (active)	1.11 µM (active)	0.931 µM (active)	0.309 µM (active)	2.6 µM (inactive)	3.44 µM (inactive)	0.746 µM (active)	0.993 µM (active)	0.933 µM (active)	37.2 µM (inactive)	2.3 µM (inactive)
CC1NC(=O)[C@H](C)N(C)C(=O)[C@@H]2CCCN2C(=O)[C@@H](NC(=O)C(Cc2ccccc2)NC(=O)/C=C/C=C/C=C/C=C/C=C/C(=O)NC2=C(O)CCC2=O)COC(=O)[C@@H]2CCCN2C1=O (stereo not given in full) (X28-[ξF]SP[NMeA][ξA]P; ester 2-C)	> 100 µM (inactive)	> 100	> 100 µM (inactive)	> 100 µM (inactive)	> 100 µM (inactive)	> 100 µM (inactive)	79.3 µM (inactive)	> 100 µM (inactive)	> 100 µM (inactive)	> 100 µM (inactive)	> 100 µM (inactive)	35.5 µM (inactive)	> 100 µM (inactive)	> 100 µM (inactive)	> 100 µM (inactive)	48.1 µM (inactive)	96.4 µM (inactive)	89.3 µM (inactive)	> 100 µM (inactive)	> 100 µM (inactive)
